# US8889354B2, “Methods for the identification, assessment, and treatment of patients with cancer therapy” (Millennium Pharmaceuticals, Inc., priority 2005, dated 2014)
# Like-named read-outs stand apart in the source and are kept apart here.
# How the values were obtained:
# multiple myeloma [1] = assay: Response of the pharmacogenomic patient subset (studies 024, 025, 039, 040), EBMT criteria; format: in vivo, human; conditions: for NP, number of patients classified as progression / NR, number of patients classified as responder / NS, number of patients classified as stable disease: best response, discovery samples
# Procedure: Patients assigned to the high-dose dexamethasone group received treatment for a maximum of 280 days. Patients in this treatment group received up to four 5-week treatment cycles, followed by up to five 4-week treatment cycles. Within each 5-week treatment cycle, the patient received dexamethasone 40 mg/day PO, once daily on Days 1 to 4, 9 to 12, and 17 to 20 of a 35-day cycle. Within each 4-week treatment cycle, the patient received dexamethasone 40 mg/day PO once daily on Days 1 to 4 of a 28 day cycle.
# Pharmacogenomic tumor samples (bone marrow aspirate) were collected from patients for evaluation of the expression of global mRNA levels.
# For those patients who participated in the pharmacogenomic portion of the study, correlation between RNA expression levels and response to therapy were evaluated descriptively. In addition, duration of response, time to disease progression, quality of life, and overall patient survival may be analyzed using RNA expression as a factor.
# A total of 224 patient samples were assessed for pharmacogenomic analyses. […] All pharmacogenomic analyses relied on the European Group for Blood and Marrow Transplant (EBMT) criteria of response category.
# The data set consisted of discovery samples matched with the patient's outcome as measured by best response and time to disease progression. For best response, each patient was classified as responder (NR), stable disease (NS), or progression (NP). For marker identification, the three response classes were further grouped into responders vs. non-responders (stable and progression) (NP+S), responders vs. progression, or progression vs. others (stable and responders) (NR+S). The analyses further separated the patients based on the treatment they received. […] Thus, the responder vs. non-responder analysis utilizes 79 vs. 84 samples. The responder vs. progression analysis utilizes 79 vs. 41 and the progression vs. other analysis utilizes 41 vs. 122 samples. For the dexamethasone analysis NR=25, NS=16, and NP=21. Accordingly, the responder vs. non-responder analysis utilizes 25 vs. 37 samples. The responder vs. progression analysis utilizes 25 vs. 21 and the progression vs. other analysis utilizes 21 vs. 41 samples.
# multiple myeloma [2] = conditions: bortezomib alone, cited from earlier work
# [3] = tested on: relapsed multiple myeloma; conditions: cited from earlier work
compound,measurement,setting,value
"CC(C)C[C@H](NC(=O)[C@H](Cc1ccccc1)NC(=O)c1cnccn1)B(O)O [bortezomib, N-pyrazinecarbonyl-L-phenylalanine-L-leucineboronic acid]","CR, number of patients",multiple myeloma [1]; Study 024,1
same,"IE, number of patients",multiple myeloma [1]; Study 024,0
same,"MR, number of patients",multiple myeloma [1]; Study 024,0
same,"NC, number of patients",multiple myeloma [1]; Study 024,1
same,"PD, number of patients",multiple myeloma [1]; Study 024,4
same,"PR, number of patients",multiple myeloma [1]; Study 024,1
same,"CR, number of patients",multiple myeloma [1]; Study 025,2
same,"IE, number of patients",multiple myeloma [1]; Study 025,5
same,"MR, number of patients",multiple myeloma [1]; Study 025,3
same,"NC, number of patients",multiple myeloma [1]; Study 025,10
same,"PD, number of patients",multiple myeloma [1]; Study 025,14
same,"PR, number of patients",multiple myeloma [1]; Study 025,10
same,"CR, number of patients",multiple myeloma [1]; Study 040,1
same,"IE, number of patients",multiple myeloma [1]; Study 040,2
same,"MR, number of patients",multiple myeloma [1]; Study 040,6
same,"NC, number of patients",multiple myeloma [1]; Study 040,13
same,"PD, number of patients",multiple myeloma [1]; Study 040,8
same,"PR, number of patients",multiple myeloma [1]; Study 040,20
same,"NP, number of patients classified as progression",multiple myeloma [1],41
same,"NR, number of patients classified as responder",multiple myeloma [1],79
same,"NS, number of patients classified as stable disease",multiple myeloma [1],43
same,CR+PR rate,multiple myeloma [1]; pharmacogenomic patient set,35%
same,overall response rate,multiple myeloma [1]; pharmacogenomic patient set,46.4%
same,CR+PR rate,multiple myeloma [2]; 53 of 193 patients,27%
same,overall response rate (CR+PR+MR),multiple myeloma [2]; 67 of 193 patients,35%
same,CR+PR rate,[3]; bortezomib 1.0 mg/m^2,30%
same,CR+PR rate,[3]; bortezomib 1.3 mg/m^2,38%
C[C@@H]1C[C@H]2[C@@H]3CCC4=CC(=O)C=C[C@]4(C)[C@@]3(F)[C@@H](O)C[C@]2(C)[C@@]1(O)C(=O)CO [dexamethasone],"NP, number of patients classified as progression",multiple myeloma [1],21
same,"NR, number of patients classified as responder",multiple myeloma [1],25
same,"NS, number of patients classified as stable disease",multiple myeloma [1],16
